The structures appear in SMILES notation.

As a reminder, the half-life is the time in which the quantity being followed falls by half. Read a high half-life as slow decline.

The conditions of the data set: rat; liver microsomes; pH 7.4; 15.0 min; 1.0 µM. (In general: Microsomes from liver hold many membrane-bound enzymes, among them those of drug oxidation.)
With `Nc1ccc(CNc2ccc([S+](=O)([O-])Nc3nccs3)cc2)c(O)c1`, the half-life is greater than 30 min.

Consider `CC(C)c1c(-c2ccccc2)nc2c(C#N)c[nH]n2c1=O`, for which the half-life was greater than 30 min.

Turning to `Fc1ccc(CNc2ncnc3onc(-c4ccc(F)cc4)c23)cc1`, the half-life turned out to be 28 min.

As for `CN1CCN(Cc2ccc(-c3ccc(C(C)(C)C#N)cc3)nc2)CC1`, the half-life came to 24.6 min.

`COc1cc(NC(=O)c2nc3ccccc3n(C)c2=O)cc(OC)c1OC` yielded a half-life greater than 30 min.

Compound `Cc1nnc(N2C(=O)c3oc4ccccc4c(=O)c3C2c2ccc(F)cc2)s1` (configuration not stated) yielded a half-life greater than 30 min.

On to `O=C(NCCc1ccc(OCC(F)(F)F)c(OCC(F)(F)F)c1)c1cc2sccc2n1Cc1ccccc1`, for which the half-life is 1.9 min.

The compound `Cc1cccc2c1NC(=O)/C2=C/c1cc(Cl)c(O)c(Cl)c1` displayed a half-life of 26 min.

As to `CC(C)C(=O)N1CCc2ccc(OCc3nc(C(=O)N4CCCC4)co3)cc2C1c1cccc(F)c1` (configuration not stated), the half-life worked out at 2.43 min. Against the preceding compound, the half-life is about 11-fold lower.

With `Cc1cc(NS(=O)(=O)c2ccc3c(c2)CCC(=O)N3)ccc1F`, the half-life worked out at 11.6 min.

The compound `Cc1nn(CCc2nc(-c3ccc(OC(F)F)cc3)cs2)c2[nH]c(=O)cc(C(F)(F)F)c12` displayed a half-life of 6.9 min.

For the compound `Cc1ccc(-c2cc(C(=O)Nc3cccc(S(=O)(=O)Nc4nccs4)c3)c3ccccc3n2)cc1C`, the half-life was 14 min.

The compound `FC(F)(F)c1ccc(CN2CCNc3cc(Nc4ccccc4)ncc3C2)cc1` yielded a half-life of 17.3 min. The half-life values of the last two compounds are within 1.5-fold of each other.

`Cc1csc2nc(-c3cccc(NC(=O)c4cccc(F)c4)c3)cn12`: the half-life turned out to be 3.67 min.

For the compound `Cc1ccc(S(=O)(=O)N2CCN(C(=O)c3cc4c(s3)CCC4)CC2)cc1`, the half-life worked out at 1.58 min.

On to `Cc1ccc(Nc2nc(NCCO)c3ccccc3n2)cc1C`, for which the half-life is 2.42 min.

For `Fc1ccc(-c2nc(-c3ccncc3)nc3ccccc23)cc1F`, the half-life turned out to be 20 min.

As for `CN(C)c1cccc(-c2c3c(=O)n(-c4ccccc4Cl)[nH]c3cc(=O)n2C)c1`, the half-life was greater than 30 min.

`CCN(CC)C(=O)N1c2ccccc2C=Cc2ccccc21` gave a half-life of 1.07 min.

Take `CC(C)C(=O)Nc1cccc(NC(=O)c2cc3ccccc3o2)c1`: the half-life is 28 min.

The compound `C[S+](=O)([O-])c1ccc(-c2nc(C(=O)NCc3cccnc3)n3ccccc23)cc1` yielded a half-life greater than 30 min.

`O=C(/C=C/c1cn(CC(O)CN2CCCCCC2)c2ccccc12)c1ccc(Br)cc1` (configuration not stated) gave a half-life of 24.2 min.

Consider `OCCOCCN1CCN(C(c2ccccc2)c2ccc(Cl)cc2)CC1` (configuration not stated), for which the half-life stood at 5.93 min.

Consider `Cc1ccc(S(=O)(=O)Nc2cnccc2C(=O)NCCc2ccccc2)cc1`, for which the half-life was determined as 4.9 min.

In the case of `Cc1ccc(-n2c(C)cc(-c3nnc4n3CCCCC4)c2C)cc1`, the half-life amounted to 1.62 min.

Consider `COc1ccc(S(=O)(=O)N(C(=O)C(C)C)c2ccc3oc(=O)sc3c2)cc1`, for which the half-life came out at 2.2 min.

In the case of `Clc1ccc(-c2nnc(C3CCCCC3)o2)cc1`, the half-life turned out to be 2.9 min.

Compound `Cc1ccc(S(=O)(=O)Nc2cnccc2C(=O)Nc2nc(-c3cccc(C)c3)cs2)cc1` registered a half-life of 5.8 min. Against the preceding compound, the half-life is about 2-fold higher.

`Fc1cnc(-c2ccccc2C(F)F)nc1NCC1CCN(c2cnccn2)CC1`: the half-life is 3.4 min.

As for `COc1ccc(NS(=O)(=O)c2ccc(C)cc2)cc1C(=O)Nc1nc(-c2ccccc2)cs1`, the half-life was 12 min.

In turn, `COc1cccc(NC(=O)c2cc(-c3ccc(C)c(C)c3)nc3ccccc23)c1` came in with a half-life of 12 min.

Turning to `O=C(NCc1ccccc1)c1cn2cc(-c3ccccc3)sc2n1`, the half-life came out at 24 min.

`Cc1c(Cl)cccc1-n1ncc(C(=O)Nc2ccc(Br)cc2F)c1C1CCNCC1` showed a half-life of 9.8 min. This half-life is about 2.4-fold lower than that of the compound before.

As for `COc1ccnc(NC(=S)N2CCN(c3ncc(C(F)(F)F)cc3Cl)CC2)c1`, the half-life is greater than 30 min.

In turn, `CC(C)Oc1ccc(-c2ccc(=O)n(CC(=O)NCCc3ccccc3)n2)cc1` returned a half-life of 1.6 min.

`CC[C@H](NC(=O)c1c(O)c(-c2ccccc2)nc2ccccc12)c1ccccc1` gave a half-life greater than 30 min.

`Cc1ccc(S(=O)(=O)Nc2cc(F)ccc2C(=O)Nc2nc(-c3ccccc3)cs2)cc1` returned a half-life of 5.6 min.

The values above are taken from PubChem BioAssay AID1508591.
